Experimental data taken from PMC12362783 (Advanced Science, 2025).

Assays:
PARP1 = PARP1 (Homo sapiens, UniProt P09874); test: PARP enzymatic inhibition ELISA (PARP1); assay type: biochemical; settings: n = 3, mean ± SD
MDA‐MB‐436 = test: Cell growth inhibition, CellTiter‐Glo (CTG); assay type: cell-based; settings: Homo sapiens, MDA-MB-436, 120 h; CTG, 5 days, n = 3
MCF‐10A = test: Cell growth inhibition, normal breast cell line; assay type: cell-based
Method: Growth viability was determined by the CellTiter‐Glo luminescent viability assay (Promega) 5 days after drug treatment. Cell viability was measured immediately after dosing (Day 0) and after 5 days of incubation using CellTiter‐Glo (CTG, Promega, G7573). Relative viability was calculated by normalizing the raw luminescence counts of the treated groups to those of the DMSO control groups. IC₅₀ values were calculated using sigmoidal dose‐response curve fitting with GraphPad Prism 9.0 software.

PI3Kα = PI3Kα (Homo sapiens, UniProt P42336); test: PIKK family kinase selectivity; assay type: biochemical
mTOR = mTOR (Homo sapiens, UniProt P42345); test: PIKK family kinase selectivity; assay type: biochemical; settings: @2500 nM; read-out: mTOR inhibitory rate at certain concentration
MDA‐MB‐231 cells [1] = test: Cell cycle assay, flow cytometry (PI); assay type: cell-based; settings: MDA‐MB‐231, 48 h; A7, B8 0.5 and 1.0 µM, controls 1.0 µM
Method: (§1) The cell cycle analysis was performed with cells seeded in 6‐well plates in growth media. The cells were allowed to attach overnight (8 h). The cultures were treated with different tested drugs for 48 h. After treatment, cells were collected and fixed with 70% pre‐cold ethanol in PBS and stored at −20 °C overnight. Then washed the cells with PBS twice, and incubated with 100 µg mL^−1 RNase A at 37 °C for 1 h, stained with propidium iodide for 30 min avoid light at room temperature. The stained cells were analyzed by flow cytometry. The percentages of cells in the G1, S, and G2/M phases were determined. The data were analyzed by FlowJo software (Tree Star, Inc., Ashland, OR).

MDA‐MB‐468 cells [2] = test: Cell cycle assay, flow cytometry (PI); assay type: cell-based; settings: MDA‐MB‐468, 48 h; A7, B8 0.5 and 1.0 µM, controls 1.0 µM
Method: as §1

MDA‐MB‐231 cells [3] = test: Colony formation assay; assay type: cell-based; settings: 1.0 µM, 10 days, vs AZD6738, Olaparib alone or combination
Method: (§2) The colony formation assay was performed with cells seeded in 6‐well plates (10 000 cells/well). After 10 days, cells were fixed with methanol and stained with crystal violet. The number of colonies was counted. Data represent the means ± SD from 3 independent experiments performed in triplicate wells.

MDA‐MB‐468 cells [4] = test: Colony formation assay; assay type: cell-based; settings: 1.0 µM, 10 days, vs AZD6738, Olaparib alone or combination
Method: as §2

MDA‐MB‐231 cells [5] = test: Immunofluorescence of γH2AX foci; assay type: cell-based; settings: 48 h, vs Olaparib, AZD6738, and their combination
Method: (§3) Cells were fixed for 30 min in 4% paraformaldehyde and permeabilized for 30 min in 1% Triton X‐100 at 4 °C. After three rinses with PBS, cells were blocked for 30 min with 5% BSA and incubated with γH2AX antibody (1/1000 dilution, CST#9718) in 5% BSA overnight at 4 °C, after which they were rinsed three times with PBS and incubated with the secondary antibodies at room temperature for 1 h. Then, cells were washed with PBS three times, and the nucleus was stained with DAPI and fixed. Finally, images were visualized with the microscope and analyzed.

MDA‐MB‐468 cells [6] = test: Immunofluorescence of γH2AX foci; assay type: cell-based; settings: 48 h, vs Olaparib, AZD6738, and their combination
Method: as §3

PI3Kα, sequence (P42336 whole entry, species assumed): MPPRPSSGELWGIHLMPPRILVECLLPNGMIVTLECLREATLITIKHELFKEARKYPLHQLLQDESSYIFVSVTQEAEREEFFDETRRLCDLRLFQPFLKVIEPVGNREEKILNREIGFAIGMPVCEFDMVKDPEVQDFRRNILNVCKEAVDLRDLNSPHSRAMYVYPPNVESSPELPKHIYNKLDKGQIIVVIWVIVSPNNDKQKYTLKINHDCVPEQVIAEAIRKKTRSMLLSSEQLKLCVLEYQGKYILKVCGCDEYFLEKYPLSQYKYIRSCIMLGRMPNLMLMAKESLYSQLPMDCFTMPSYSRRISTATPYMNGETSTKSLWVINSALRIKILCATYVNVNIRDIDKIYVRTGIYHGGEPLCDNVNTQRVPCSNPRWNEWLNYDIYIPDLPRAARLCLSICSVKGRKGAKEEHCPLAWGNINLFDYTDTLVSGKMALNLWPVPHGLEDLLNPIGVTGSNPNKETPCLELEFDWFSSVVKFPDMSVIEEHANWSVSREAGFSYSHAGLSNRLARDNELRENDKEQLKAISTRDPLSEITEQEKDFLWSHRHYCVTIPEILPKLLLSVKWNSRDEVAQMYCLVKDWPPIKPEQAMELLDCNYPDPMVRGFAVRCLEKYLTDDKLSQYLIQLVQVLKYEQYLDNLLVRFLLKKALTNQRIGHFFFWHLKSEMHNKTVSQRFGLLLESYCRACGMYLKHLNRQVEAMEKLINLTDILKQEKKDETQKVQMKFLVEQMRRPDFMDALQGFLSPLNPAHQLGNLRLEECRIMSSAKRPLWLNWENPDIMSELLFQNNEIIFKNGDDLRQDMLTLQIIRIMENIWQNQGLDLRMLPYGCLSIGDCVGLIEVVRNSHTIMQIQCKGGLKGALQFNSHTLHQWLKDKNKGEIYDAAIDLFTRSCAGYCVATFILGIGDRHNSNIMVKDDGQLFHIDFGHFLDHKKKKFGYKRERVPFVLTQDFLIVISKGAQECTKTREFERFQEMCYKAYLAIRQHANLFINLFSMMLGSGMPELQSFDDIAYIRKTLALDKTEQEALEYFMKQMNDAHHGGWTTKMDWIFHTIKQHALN
PI3Kα, sequence (P27986 whole entry partner, species assumed): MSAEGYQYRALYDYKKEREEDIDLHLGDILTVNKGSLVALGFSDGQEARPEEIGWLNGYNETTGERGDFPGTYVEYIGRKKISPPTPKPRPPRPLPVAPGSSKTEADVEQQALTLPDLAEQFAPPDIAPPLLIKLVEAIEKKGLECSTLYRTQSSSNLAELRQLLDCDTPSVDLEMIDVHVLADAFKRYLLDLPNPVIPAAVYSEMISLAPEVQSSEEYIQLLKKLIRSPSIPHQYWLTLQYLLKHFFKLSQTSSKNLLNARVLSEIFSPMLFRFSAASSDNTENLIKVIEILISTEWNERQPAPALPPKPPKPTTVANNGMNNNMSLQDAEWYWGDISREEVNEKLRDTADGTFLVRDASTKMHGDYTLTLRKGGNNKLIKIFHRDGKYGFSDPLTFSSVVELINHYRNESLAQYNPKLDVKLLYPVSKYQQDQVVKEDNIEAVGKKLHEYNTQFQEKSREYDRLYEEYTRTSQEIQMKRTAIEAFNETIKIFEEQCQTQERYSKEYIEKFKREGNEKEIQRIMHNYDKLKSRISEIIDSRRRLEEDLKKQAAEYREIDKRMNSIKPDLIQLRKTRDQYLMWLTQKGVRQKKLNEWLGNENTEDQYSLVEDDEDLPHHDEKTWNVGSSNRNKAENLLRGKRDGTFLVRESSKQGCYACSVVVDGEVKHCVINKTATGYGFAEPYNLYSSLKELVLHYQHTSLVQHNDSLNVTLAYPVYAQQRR
PARP1, sequence (P09874 whole entry): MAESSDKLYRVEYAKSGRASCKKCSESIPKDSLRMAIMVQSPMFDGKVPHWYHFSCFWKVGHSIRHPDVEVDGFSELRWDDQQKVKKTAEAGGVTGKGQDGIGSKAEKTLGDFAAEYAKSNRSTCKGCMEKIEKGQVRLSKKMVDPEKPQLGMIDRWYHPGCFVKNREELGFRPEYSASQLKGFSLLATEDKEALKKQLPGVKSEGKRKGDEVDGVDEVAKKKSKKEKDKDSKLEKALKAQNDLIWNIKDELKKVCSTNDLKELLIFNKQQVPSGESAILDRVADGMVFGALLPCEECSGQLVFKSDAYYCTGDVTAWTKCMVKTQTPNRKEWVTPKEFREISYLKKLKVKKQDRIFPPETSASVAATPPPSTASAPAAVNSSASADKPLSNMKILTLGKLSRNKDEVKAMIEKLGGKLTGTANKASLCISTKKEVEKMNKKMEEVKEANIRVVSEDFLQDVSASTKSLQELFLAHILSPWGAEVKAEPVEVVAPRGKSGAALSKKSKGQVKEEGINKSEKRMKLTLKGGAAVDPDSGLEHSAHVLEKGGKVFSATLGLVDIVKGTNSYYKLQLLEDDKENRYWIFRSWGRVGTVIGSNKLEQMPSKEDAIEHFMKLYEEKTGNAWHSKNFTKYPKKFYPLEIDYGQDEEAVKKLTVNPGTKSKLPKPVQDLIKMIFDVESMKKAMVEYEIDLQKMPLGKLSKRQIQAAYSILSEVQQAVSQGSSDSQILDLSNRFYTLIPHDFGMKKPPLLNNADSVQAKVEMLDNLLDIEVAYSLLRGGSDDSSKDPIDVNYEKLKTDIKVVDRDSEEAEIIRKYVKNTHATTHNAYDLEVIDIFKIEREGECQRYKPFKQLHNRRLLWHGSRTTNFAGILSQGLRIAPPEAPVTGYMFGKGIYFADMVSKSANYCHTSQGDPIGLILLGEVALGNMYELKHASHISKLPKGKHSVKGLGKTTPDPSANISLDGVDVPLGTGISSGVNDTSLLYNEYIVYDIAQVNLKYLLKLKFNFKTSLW

C[C@@H]1COCCN1c1cc(CNC(=O)c2ccc(C(=O)N3CCN(C(=O)c4cc(Cc5n[nH]c(=O)c6ccccc56)ccc4F)CC3)cc2)nc(-c2ccnc3[nH]ccc23)n1 [Compound B8, (R)‐4‐(4‐(2‐fluoro‐5‐((4‐oxo‐3,4‐dihydrophthalazin‐1‐yl)methyl)benzoyl)piperazine‐1‐carbonyl)‐N‐((6‐(3‐methylmorpholino)‐2‐(1H‐pyrrolo[2,3‐b]pyridin‐4‐yl)pyrimidin‐4‐yl)methyl) benzamide]
IC50 (PARP1): 0.38 ± 0.08 nM
IC50 (MDA‐MB‐436): 9 ± 2 nM
inhibition at 30 µM (MCF‐10A; Homo sapiens, MCF-10A, @30 µM, read-out: MCF‐10A inhibitory rate at certain concentration): 17%
inhibitory activity against normal cells (MCF‐10A; MCF‐10A): minimal inhibitory activity against normal cells
IC50 (PI3Kα): > 2500 nM
inhibition at […] (mTOR): 10.3%
effect on cell cycle distribution (MDA‐MB‐231 cells [1]): markedly increased the proportion of G2/M phase cells
effect on cell cycle distribution (MDA‐MB‐468 cells [2]): markedly increased the proportion of G2/M phase cells
colony formation rate (MDA‐MB‐231 cells [3]): significantly greater inhibitory effect on the colony formation rate
colony formation rate (MDA‐MB‐468 cells [4]): significantly greater inhibitory effect on the colony formation rate
γH2AX foci formation (MDA‐MB‐231 cells [5]): significantly increased the formation of γH2AX foci
γH2AX foci formation (MDA‐MB‐468 cells [6]): significantly increased the formation of γH2AX foci
